In PubChem BioAssay AID2060614 (Molecular Pharmacology Branch, DTP, NCI, 2025):
“And” between values parts separate entries of the source, which are not always exact repeats. Equal entries are not always repeated.

Test system: 598228-144-R-J1-PDC complex spheroids, viability
Test: Anticancer human tumor 598228-144-R-J1-PDC patient-derived serous endometrial adenocarcinoma cell line growth inhibition [CLK]
Conditions: for viability, T/C: stronger effect = lower value; active = viability on the fitted dose curve at most 10% of control; inactive = the rest
Description: A high-throughput screen of multi-cell type tumor spheroids was designed to identify active combinations of […] and targeted small molecules. Complex spheroids include a stromal component modeled by human endothelial cells (HUVEC) and fibroblasts modeled by human mesenchymal stem cells (MSCs). The concentration ranges selected for each drug and investigational agent were based upon clinically achievable concentrations if the clinical Cmax of the agent was known.
Compounds. The drugs and investigational agents: cirtuvivint (SM08502; NSC835563), CC-671 (NSC850746), vemurafenib (NSC761431), tapotoclax (NSC804041), sotorasib (NSC818433), adagrasib (NSC831453), MRTX-1133 (NSC836407), BAY2416964 (NSC825713), copanlisib (NSC816437), inavolisib (NSC800729), abemaciclib (NSC768073), osimertinib (NSC779217), entinostat (NSC756642), eltanexor (KPT-8602, NSC794443), venetoclax (NSC766270), ceralasertib (NSC777638), bortezomib (NSC756655), olaparib (NSC753686), talazoparib (NSC767125), alisertib (NSC759677), peposertib (NSC802822), gemcitabine (NSC613327), 5-fluorouracil (NSC19893), SN-38 (NSC673596), oxaliplatin (NSC266046), paclitaxel (NSC125973), and doxorubicin (NSC123127), were obtained from the National Cancer Institute (NCI) Developmental Therapeutics Program Chemical Repository. The FDA-approved anticancer drug set is available from the Developmental Therapeutics Program at https://dtp.cancer.gov/organization/dscb/obtaining/available plates.htm. […] The stock solutions were prepared in dimethyl sulfoxide (DMSO, Sigma-Aldrich, St. Louis, MO, cat. D2650), except for the platinum complexes which were prepared in saline (Quality Biological, Gaithersburg, MD, cat. 114-055-101), at 800-fold the tested concentration and stored at -70 degrees C prior to their use. All drugs and investigational agents were tested over a range starting from a high concentration at or near the clinical Cmax and decreasing in half-log increments. If the clinical Cmax for an agent had not been determined, the highest concentration tested was 10 microM.
Cell Culture. All cells were maintained in an incubator at 37 degrees C and 5% CO2 with 95% humidity. The PDC lines were cultured according to standard operating procedures established by the NCI PDMR. Briefly, all PDCs were thawed and cultured in Matrigel-coated flasks prepared with a working solution of 1X Ham's F-12 nutrient mix, without supplementation (Invitrogen, Waltham, MA, cat. 11765054), 100 U/mL penicillin-streptomycin (Invitrogen, cat. 15140122), and 2.5% Matrigel (Corning Inc., Corning, NY, cat. 354248) for the first three passages. The 947758-054-R-J2-PDC line was cultured in 6B/Colon 1A media, which includes advanced DMEM/F-12 (Thermo Fisher Scientific, cat. 12634028), 10 mM HEPES (Thermo Fisher Scientific, cat. 15630080), 1X GlutaMAX supplement (Thermo Fisher Scientific, cat. 35050061), 0.1 mg/mL primocin (InvivoGen, cat. ant-pm-2), 10% defined fetal bovine serum, heat inactivated (HyClone Laboratories Inc., cat. SH30070.03HI), 1.25 mM N-Acetyl-L-cysteine (Sigma-Aldrich, cat. A9165), 10 mM nicotinamide (Sigma-Aldrich, cat. N0636), 1X B-27 supplement (Thermo Fisher Scientific, cat. 17504044), 1X N-2 supplement (Thermo Fisher Scientific, cat. 17502048), and 10 microM Y-27632 dihydrochloride (Tocris Bioscience, cat. 1254). The 876862-298-R-J1-PDC was cultured in 6E media, which includes all 6B/Colon 1A media components plus 50% L-WRN conditioned media (ATCC, cat. CRL-3276), 50 ng/mL recombinant human EGF recombinant protein (hEGF; Thermo Fisher Scientific, cat. PHG0311), 10 ng/mL recombinant human fibroblast growth factor 10 (hGFG-10; PeproTech, cat. 100-26), 1 ng/mL recombinant human fibroblast growth factor 2 (hFGF-2; PeproTech, cat. 100-18B), and 1 µM prostaglandin E2 (PGE2; Tocris, cat. 2296). The 227483-062-R1-J1-PDC line was cultured in Panc media, containing all 6E components except hFGF-2, with the addition of 500 nM SB-431542 (Selleckchem, cat. S1067) and 10 nM gastrin (Tocris, cat. 3006). […]
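Also: spheroids exposed to compounds for seven days before readout.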
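For viability, T/C in this document: 100% = DMSO vehicle control wells.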

C=CC(=O)Nc1cc(Nc2nccc(-c3cn(C)c4ccccc34)n2)c(OC)cc1N(C)CCN(C)C + CN1CCN(c2cc(C(=O)Nc3cc4cc(-c5cnn(C)c5)ccc4cn3)ccn2)CC1
active: viability, T/C (second compound 1 µM, first compound 0.000949 µM) 1.75% | viability, T/C (second compound 1 µM, first compound 0.003 µM) 2.14% | viability, T/C (second compound 1 µM, first compound 0.00949 µM) 6.03% | viability, T/C (second compound 1 µM, first compound 0.03 µM) 1.51% | viability, T/C (second compound 1 µM, first compound 0.0949 µM) 1.29% | viability, T/C (second compound 1 µM, first compound 0.3 µM) 3.97% | viability, T/C (second compound 3.16 µM, first compound 0.000949 µM) 1.65% | viability, T/C (second compound 3.16 µM, first compound 0.003 µM) 1.56% | viability, T/C (second compound 3.16 µM, first compound 0.00949 µM) 2.1% | viability, T/C (second compound 3.16 µM, first compound 0.03 µM) 1.72% | viability, T/C (second compound 3.16 µM, first compound 0.0949 µM) 2.58% | viability, T/C (second compound 3.16 µM, first compound 0.3 µM) 2.49% | viability, T/C (second compound 10 µM, first compound 0.000949 µM) 1.18% | viability, T/C (second compound 10 µM, first compound 0.003 µM) 1.02% | viability, T/C (second compound 10 µM, first compound 0.00949 µM) 1.77% | viability, T/C (second compound 10 µM, first compound 0.03 µM) 1.25% | viability, T/C (second compound 10 µM, first compound 0.0949 µM) 5.91% | viability, T/C (second compound 10 µM, first compound 0.3 µM) 2.52%
> 300 nM: IC50 (curve of first compound, second compound 0.0316 µM) | IC50 (curve of first compound, second compound 0.1 µM)
< 0.949 nM: IC50 (curve of first compound, second compound 0.316 µM) | IC50 (curve of first compound, second compound 1 µM) | IC50 (curve of first compound, second compound 3.16 µM) | IC50 (curve of first compound, second compound 10 µM)
inactive: viability, T/C (second compound 0.0316 µM, first compound 0.000949 µM) 133% | viability, T/C (second compound 0.0316 µM, first compound 0.003 µM) 108% | viability, T/C (second compound 0.0316 µM, first compound 0.00949 µM) 114% | viability, T/C (second compound 0.0316 µM, first compound 0.03 µM) 117% | viability, T/C (second compound 0.0316 µM, first compound 0.0949 µM) 108% | viability, T/C (second compound 0.0316 µM, first compound 0.3 µM) 98.8% | viability, T/C (second compound 0.1 µM, first compound 0.000949 µM) 127% | viability, T/C (second compound 0.1 µM, first compound 0.003 µM) 126% | viability, T/C (second compound 0.1 µM, first compound 0.00949 µM) 116% | viability, T/C (second compound 0.1 µM, first compound 0.03 µM) 112% | viability, T/C (second compound 0.1 µM, first compound 0.0949 µM) 103% | viability, T/C (second compound 0.1 µM, first compound 0.3 µM) 91.9% | viability, T/C (second compound 0.316 µM, first compound 0.000949 µM) 19.6% | viability, T/C (second compound 0.316 µM, first compound 0.003 µM) 17% | viability, T/C (second compound 0.316 µM, first compound 0.00949 µM) 17.1% | viability, T/C (second compound 0.316 µM, first compound 0.03 µM) 15.4% | viability, T/C (second compound 0.316 µM, first compound 0.0949 µM) 12.5% | viability, T/C (second compound 0.316 µM, first compound 0.3 µM) 14.6%

CCc1c2c(nc3ccc(O)cc13)-c1cc3c(c(=O)n1C2)COC(=O)[C@]3(O)CC
active: viability, T/C (compound 1 µM) 4.57% and 6.27%
inactive: viability, T/C (compound 0.00316 µM) 54.7% and 48.2% | viability, T/C (compound 0.01 µM) 61.4% and 56.1% | viability, T/C (compound 0.0316 µM) 45% and 44.2% | viability, T/C (compound 0.1 µM) 29% and 22.6% | viability, T/C (compound 0.316 µM) 16.5% and 15.5%
20.8 nM and 12.6 nM: IC50 (curve of compound)
